# Tests used:
# Assay type in all cases: functional
# Staphylococcus aureus [1] = experiment: Antibacterial activity against methicillin resistant Staphylococcus aureus clinical isolate assessed as inhibition of bacterial growth incubated for 24 hrs
# Staphylococcus aureus [2] = experiment: Antibacterial activity against Staphylococcus aureus clinical isolate assessed as inhibition of bacterial growth incubated for 24 hrs
# Staphylococcus aureus [3] = experiment: Antibacterial activity against Staphylococcus aureus ATCC 25923 assessed as inhibition of bacterial growth incubated for 24 hrs
# Staphylococcus aureus [4] = experiment: Antibacterial activity against Staphylococcus aureus ATCC 29213 assessed as inhibition of bacterial growth incubated for 24 hrs
# Enterococcus faecalis = experiment: Antibacterial activity against Enterococcus faecalis clinical isolate assessed as inhibition of bacterial growth incubated for 24 hrs
# Klebsiella pneumoniae = experiment: Antibacterial activity against Klebsiella pneumoniae clinical isolate assessed as inhibition of bacterial growth incubated for 24 hrs
# Escherichia coli [5] = experiment: Antibacterial activity against Escherichia coli clinical isolate assessed as inhibition of bacterial growth incubated for 24 hrs
# Escherichia coli [6] = experiment: Antibacterial activity against Escherichia coli ATCC 25922 assessed as inhibition of bacterial growth incubated for 24 hrs
# Pseudomonas aeruginosa [7] = experiment: Antibacterial activity against Pseudomonas aeruginosa clinical isolate assessed as inhibition of bacterial growth incubated for 24 hrs
# Pseudomonas aeruginosa [8] = experiment: Antibacterial activity against Pseudomonas aeruginosa ATCC 27853 assessed as inhibition of bacterial growth incubated for 24 hrs
# Acinetobacter baumannii = experiment: Antibacterial activity against Acinetobacter baumannii clinical isolate assessed as inhibition of bacterial growth incubated for 24 hrs
SMILES,MIC (Staphylococcus aureus [1]) [µg/mL],MIC (Staphylococcus aureus [2]) [µg/mL],MIC (Staphylococcus aureus [3]) [µg/mL],MIC (Staphylococcus aureus [4]) [µg/mL],MIC (Enterococcus faecalis) [µg/mL],MIC (Klebsiella pneumoniae) [µg/mL],MIC (Escherichia coli [5]) [µg/mL],MIC (Escherichia coli [6]) [µg/mL],MIC (Pseudomonas aeruginosa [7]) [µg/mL],MIC (Pseudomonas aeruginosa [8]) [µg/mL],MIC (Acinetobacter baumannii) [µg/mL]
N#CCc1cc2c(cc1F)c(=O)c(C(=O)O)cn2CC(=O)N1CCCCC1,4,128,16,4,64,16,16,4,1,4,64
CCCCn1cc(C(=O)O)c(=O)c2cc(F)c(CC#N)cc21,0.5,8,0.25,8,64,1,4,0.5,0.5,4,256
N#CCc1cc2c(cc1F)c(=O)c(C(=O)O)cn2Cc1c(F)cccc1F,4,4,4,4,2,8,32,2,4,4,8
N#CCc1cc2c(cc1F)c(=O)c(C(=O)O)cn2CC1CCCC1,256,128,64,256,256,256,32,256,256,128,128
N#CCc1cc2c(cc1F)c(=O)c(C(=O)O)cn2Cc1ccc(Cl)c(Cl)c1,256,256,0.25,2,256,16,8,2,0.5,2,0.5
N#CCc1cc2c(cc1F)c(=O)c(C(=O)O)cn2Cc1ccccc1,8,256,0.25,0.5,4,0.5,2,0.25,0.25,1,256
N#CCc1cc2c(cc1F)c(=O)c(C(=O)O)cn2CC1CCCCC1,256,256,256,256,256,256,256,256,16,256,256
N#CCc1cc2c(cc1F)c(=O)c(C(=O)O)cn2Cc1ccc([N+](=O)[O-])cc1,128,256,32,256,8,8,256,128,4,32,256
N#CCc1cc2c(cc1F)c(=O)c(C(=O)O)cn2Cc1cccc(Cl)c1,256,256,0.5,0.5,256,1,2,0.5,0.25,0.5,16
N#CCc1cc2c(cc1F)c(=O)c(C(=O)O)cn2Cc1ccc(C(F)(F)F)cc1,16,8,2,4,0.5,64,256,8,16,8,64
CCCCCCn1cc(C(=O)O)c(=O)c2cc(F)c(CC#N)cc21,256,256,0.25,256,256,8,4,0.5,2,256,256
N#CCc1cc2c(cc1F)c(=O)c(C(=O)O)cn2Cc1ccc(Cl)cc1,256,256,0.5,4,256,256,256,256,0.5,256,16
CCCCCn1cc(C(=O)O)c(=O)c2cc(F)c(CC#N)cc21,0.5,256,0.25,8,256,1,16,0.25,1,4,256
N#CCc1cc2c(cc1F)c(=O)c(C(=O)O)cn2CC1CCC1,128,64,0.5,256,32,256,128,128,256,128,256
